Tested on: LG0567-F671-PDC complex spheroids viability
Assay: Anticancer human tumor LG0567-F671-PDC patient-derived lung adenocarcinoma cell line growth inhibition [RAS]
Conditions: for IC50: curve of first compound; for viability, T/C: stronger effect = lower value
Text: RAS pathway inhibitors in Combinations in Complex Spheroids
A high-throughput screen of multi-cell type tumor spheroids was designed to identify active combinations of RAS pathway inhibitors and targeted small molecules. Complex spheroids include a stromal component modeled by human endothelial cells (HUVEC) and fibroblasts modeled by human mesenchymal stem cells (MSCs). The concentration ranges selected for each drug and investigational agent were based upon clinically achievable concentrations if the clinical Cmax of the agent was known.
Compounds. The drugs and investigational agents: abemaciclib (NSC768073), cobimetinib (NSC768068), divarasib (GDC6063, NSC841802), docetaxel (NSC628503), GDC-1971 (RLY-1971, NSC841576), gemcitabine (NSC613327), inavolisib (NSC800729), ipatasertib (NSC767898), KB-0742 (NSC834161), MRTX-1133 (NSC836407), osimertinib (NSC779217), RMC-4630 (NSC839698), RMC-6236 (NSC851965), RMC-6291 (NSC852671), Ro-3306 (NSC812927), sapanisertib (NSC764658), SN-38 (NSC673596), staurosporine (NSC755774), SY5609 (NSC837396), and tovorafenib (DAY101, NSC766906), were obtained from the National Cancer Institute (NCI) Developmental Therapeutics Program Chemical Repository. The FDA-approved anticancer drug set is available from the NCI Developmental Therapeutics Program. […] The stock solutions were prepared in dimethyl sulfoxide (DMSO, Sigma-Aldrich, St. Louis, MO, cat. D2650) at 800-fold the tested concentration and stored at -70 degrees C prior to their use. All drugs and investigational agents were tested over a range starting from a high concentration at or near the clinical Cmax and decreasing in half-log increments. If the clinical Cmax for an agent had not been determined, the highest concentration tested was 10 microM.
Cell Culture. All cells were maintained in an incubator at 37 degrees C and 5% CO2 with 95% humidity. The PDC lines were cultured according to standard operating procedures established by the NCI PDMR. All PDCs were thawed and cultured in Matrigel-coated flasks prepared with a working solution of 1X Ham's F-12 nutrient mix, without supplementation (Invitrogen, Waltham, MA, cat. 11765054), 100 U/mL penicillin-streptomycin (Invitrogen, cat. 15140122), and 2.5% Matrigel (Corning Inc., Corning, NY, cat. 354248) for the first three passages. The 362531-283-R-J2-PDC and 782815-120-R-J1-PDC lines were cultured in 6C/Colon 1B media, which includes advanced DMEM/F-12 (Thermo Fisher Scientific, cat. 12634028), 10 mM HEPES (Thermo Fisher Scientific, cat. 15630080), 1X GlutaMAX supplement (Thermo Fisher Scientific, cat. 35050061), 0.1 mg/mL primocin (InvivoGen, San Diego, CA, cat. ant-pm-2), 10% defined fetal bovine serum, heat inactivated (HyClone Laboratories Inc., Logan, UT, cat. SH30070.03HI), 50% L-WRN conditioned media (ATCC, cat. CRL-3276), 1.25 mM N-Acetyl-L-cysteine (Sigma-Aldrich, cat. A9165), 10 mM nicotinamide (Sigma-Aldrich, cat. N0636), 1X B-27 supplement (Thermo Fisher Scientific, cat. 17504044), 1X N-2 supplement (Thermo Fisher Scientific, cat. 17502048), 50 ng/mL human EGF (Thermo Fisher Scientific, cat. PHG0311), and 10 microM Y-27632 dihydrochloride (Tocris Bioscience, cat. 1254). The K12877-001-R-J1-PDC line was cultured in 6I media, which includes all 6C/Colon 1B media plus 10 ng/mL human FGF-10 (PeproTech, cat. 100-26), 1 ng/mL human FGF-2 (PeproTech, cat. 100-18B), 1 µM prostaglandin E2 (Tocris Bioscience, cat. 2296), […] hydrocortisone (Sigma-Aldrich, cat. H4001), and […] bovine insulin (Sigma-Aldrich, cat. I6634). The K86415-001-R-J1-PDC line was cultured in 6D media, which includes all 6C/Colon 1B media components minus the L-WRN conditioned media. The 485176-168-R4-J1-PDC was cultured in PANC media, which includes all 6C/Colon 1B media plus 100 ng/mL human FGF-10 (PeproTech, cat. 100-26), 500 nM SB-431542 (Selleckchem, cat. S1067), and 10 nM gastrin (Tocris Bioscience, cat. 3006). […]
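Also: spheroids exposed to compound for seven days before readout.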
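For IC50 in this document: luminescence signal used as a proxy for viable cells.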

With O=C(c1ccc(F)c(F)c1Nc1ccc(I)cc1F)N1CC(O)([C@@H]2CCCCN2)C1 + C#Cc1c(F)ccc2cc(O)cc(-c3ncc4c(N5CC6CCC(C5)N6)nc(OCC56CCCN5CC(F)C6)nc4c3F)c12 the IC50 (second compound 0.0316 µM) was 13.6 nM, the IC50 (second compound 0.1 µM) was 8.46 nM and the IC50 (second compound 0.316 µM) was 5.19 nM. It also gave an IC50 (second compound 1 µM) of less than 3.16 nM, an IC50 (second compound 3.16 µM) of less than 3.16 nM and an IC50 (second compound 10 µM) of less than 3.16 nM. It also gave a viability, T/C (second compound 0.0316 µM, first compound 0.00316 µM) of 80.2%, a viability, T/C (second compound 0.0316 µM, first compound 0.01 µM) of 53.4% and a viability, T/C (second compound 0.0316 µM, first compound 0.0316 µM) of 37%. The viability, T/C (second compound 0.0316 µM, first compound 0.1 µM) was 23%, the viability, T/C (second compound 0.0316 µM, first compound 0.316 µM) was 10.1% and the viability, T/C (second compound 0.0316 µM, first compound 1 µM) was 3.93%. The viability, T/C (second compound 0.1 µM, first compound 0.00316 µM) was 64.2%, the viability, T/C (second compound 0.1 µM, first compound 0.01 µM) was 45.9% and the viability, T/C (second compound 0.1 µM, first compound 0.0316 µM) was 35.4%. It also gave a viability, T/C (second compound 0.1 µM, first compound 0.1 µM) of 19.2%, a viability, T/C (second compound 0.1 µM, first compound 0.316 µM) of 10.7% and a viability, T/C (second compound 0.1 µM, first compound 1 µM) of 3.38%. For the same compound, the viability, T/C (second compound 0.316 µM, first compound 0.00316 µM) was 52.8%, the viability, T/C (second compound 0.316 µM, first compound 0.01 µM) was 46.8% and the viability, T/C (second compound 0.316 µM, first compound 0.0316 µM) was 30.7%. It also gave a viability, T/C (second compound 0.316 µM, first compound 0.1 µM) of 17.1%, a viability, T/C (second compound 0.316 µM, first compound 0.316 µM) of 9.98% and a viability, T/C (second compound 0.316 µM, first compound 1 µM) of 3.87%. It also gave a viability, T/C (second compound 1 µM, first compound 0.00316 µM) of 34.5%, a viability, T/C (second compound 1 µM, first compound 0.01 µM) of 28% and a viability, T/C (second compound 1 µM, first compound 0.0316 µM) of 21.3%. The viability, T/C (second compound 1 µM, first compound 0.1 µM) was 12.1%, the viability, T/C (second compound 1 µM, first compound 0.316 µM) was 6.87% and the viability, T/C (second compound 1 µM, first compound 1 µM) was 3.06%. For the same compound, the viability, T/C (second compound 3.16 µM, first compound 0.00316 µM) was 17.3%, the viability, T/C (second compound 3.16 µM, first compound 0.01 µM) was 14.1% and the viability, T/C (second compound 3.16 µM, first compound 0.0316 µM) was 16.4%. The viability, T/C (second compound 3.16 µM, first compound 0.1 µM) was 7.89%, the viability, T/C (second compound 3.16 µM, first compound 0.316 µM) was 3.15% and the viability, T/C (second compound 3.16 µM, first compound 1 µM) was 2.12%. The viability, T/C (second compound 10 µM, first compound 0.00316 µM) was 10.5%, the viability, T/C (second compound 10 µM, first compound 0.01 µM) was 7.59% and the viability, T/C (second compound 10 µM, first compound 0.0316 µM) was 5.41%. It also gave a viability, T/C (second compound 10 µM, first compound 0.1 µM) of 2.84%, a viability, T/C (second compound 10 µM, first compound 0.316 µM) of 1.91% and a viability, T/C (second compound 10 µM, first compound 1 µM) of 1.49%.

Reference: PubChem BioAssay AID2060889 (Molecular Pharmacology Branch, DTP, NCI, 2025)
